From patent US9233964B2, “Sulfamide piperazine derivatives as protein tyrosine kinase inhibitors and pharmaceutical use therof” (LEO PHARMA A/S, priority 2011, dated 2016) come the findings set out here.

Type in all cases: biochemical
The target of one assay is T1, JAK1 (Homo sapiens, UniProt P23458).
T1 construct: JAK1 (aa 850-1154) and TYK2 (aa 871-1187) are expressed with an N-terminally fused GST-tag; GST (N); purchased Carna Biosciences, Inc; host or cells: baculovirus expression system
In words: JAK kinase assay (HTRF, phosphorylation of synthetic peptide), JAK1. To be noted: catalytic domain, ATP at Km (7 μM); read-out: JAK1 kinase inhibitory activity (EC50). The gist of the method: (§1)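 Catalytic-domain human JAK1 (GST-tagged, aa 850-1154) or His-tagged JAK2, baculovirus-expressed, phosphorylated 1 µM biotinylated TK peptide at Km ATP (JAK1 7 µM, 10 mM MgCl2, 50 nM SEB; JAK2 4 µM, 5 mM MgCl2) in pH 7.0 Hepes, 20-30 min RT. EDTA stop; overnight streptavidin-XL665/cryptate HTRF read.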

The next assay concerns the target T2, TYK2 (Homo sapiens, UniProt P29597).
T2 construct: JAK1 (aa 850-1154) and TYK2 (aa 871-1187) are expressed with an N-terminally fused GST-tag; GST (N); purchased Carna Biosciences, Inc; host or cells: baculovirus expression system
T2 sequence (P29597 871-1187): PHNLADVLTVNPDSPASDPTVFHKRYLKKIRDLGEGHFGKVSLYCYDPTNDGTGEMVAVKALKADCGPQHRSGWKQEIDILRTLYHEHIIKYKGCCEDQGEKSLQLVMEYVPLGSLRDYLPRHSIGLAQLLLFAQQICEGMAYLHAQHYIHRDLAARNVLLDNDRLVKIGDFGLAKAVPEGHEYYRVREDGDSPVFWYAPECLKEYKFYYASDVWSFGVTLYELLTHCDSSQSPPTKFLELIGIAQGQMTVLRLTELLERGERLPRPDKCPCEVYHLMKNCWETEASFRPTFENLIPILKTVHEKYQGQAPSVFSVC
In words: JAK kinase assay (HTRF, phosphorylation of synthetic peptide), TYK2. To be noted: catalytic domain, ATP at Km (13 μM); read-out: TYK2 kinase inhibitory activity (EC50). The gist of the method:
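1 µM biotinylated TK peptide at Km ATP in pH 7.0 Hepes, 20-30 min RT. EDTA stop; overnight streptavidin-XL665/cryptate HTRF read.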

Another assay deals with T3, JAK3 (Homo sapiens, UniProt P52333).
T3 construct: All four purified enzymes contain only the catalytic domain; His (N); purchased Carna Biosciences, Inc; host or cells: baculovirus expression system
The assay can be described thus: JAK kinase assay (HTRF, phosphorylation of synthetic peptide), JAK3. To be noted: catalytic domain, ATP at Km (2 μM); read-out: JAK3 kinase inhibitory activity (EC50).

Another assay has as its target T4, JAK2 (Homo sapiens, UniProt O60674).
T4 construct: All four purified enzymes contain only the catalytic domain; His (N); purchased Carna Biosciences, Inc; host or cells: baculovirus expression system
In words: JAK kinase assay (HTRF, phosphorylation of synthetic peptide), JAK2. The conditions noted are these: catalytic domain, ATP at Km (4 μM); read-out: JAK2 kinase inhibitory activity (EC50). In short, it runs like this:
as §1

T1 sequence (P23458 850-1154): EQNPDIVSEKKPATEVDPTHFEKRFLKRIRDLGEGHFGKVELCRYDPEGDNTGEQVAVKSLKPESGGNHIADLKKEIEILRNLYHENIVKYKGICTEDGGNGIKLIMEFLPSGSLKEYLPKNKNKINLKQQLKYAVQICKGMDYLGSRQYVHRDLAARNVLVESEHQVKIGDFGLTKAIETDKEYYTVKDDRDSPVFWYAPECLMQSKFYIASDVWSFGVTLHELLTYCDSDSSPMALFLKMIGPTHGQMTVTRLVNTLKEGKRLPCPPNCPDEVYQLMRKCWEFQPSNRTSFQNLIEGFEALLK
T3 sequence (P52333 822-1111 limits assumed): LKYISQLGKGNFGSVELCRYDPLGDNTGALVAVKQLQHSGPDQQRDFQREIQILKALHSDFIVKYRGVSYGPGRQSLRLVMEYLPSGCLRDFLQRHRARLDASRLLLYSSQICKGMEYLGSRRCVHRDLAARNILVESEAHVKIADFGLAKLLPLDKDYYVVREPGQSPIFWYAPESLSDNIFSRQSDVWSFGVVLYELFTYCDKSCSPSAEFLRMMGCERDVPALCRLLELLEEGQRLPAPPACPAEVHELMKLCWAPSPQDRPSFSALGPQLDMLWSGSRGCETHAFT
T4 sequence (O60674 849-1124 limits assumed): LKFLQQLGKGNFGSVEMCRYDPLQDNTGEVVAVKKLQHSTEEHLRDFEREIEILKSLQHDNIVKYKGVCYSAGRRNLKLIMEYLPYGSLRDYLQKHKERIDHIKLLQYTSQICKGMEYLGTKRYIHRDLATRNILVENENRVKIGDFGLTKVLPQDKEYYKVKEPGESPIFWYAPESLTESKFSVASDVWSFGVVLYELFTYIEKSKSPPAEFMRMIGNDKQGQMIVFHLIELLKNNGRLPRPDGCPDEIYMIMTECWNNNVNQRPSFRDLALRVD

For the molecule `CN(C)CCCN(C1CCC1)S(=O)(=O)N1CCN(c2ncnc3[nH]ccc23)CC12CC2` [Example 105, N-cyclobutyl-N-[3-(dimethylamino)propyl]-5-(7H-pyrrolo[2,3-d]pyrimidin-4-yl)-5,8-diazaspiro[2.5]octane-8-sulfonamide], the EC50 at JAK1 is 100 to 500 nM; on TYK2, over 500 nM; on JAK3 it was over 500 nM; at JAK2, under 100 nM.

Regarding `O=S(=O)(N(CCN1CCOCC1)C1CCC1)N1CCN(c2ncnc3[nH]ccc23)CC12CC2` [Example 106, N-cyclobutyl-N-(2-morpholinoethyl)-5-(7H-pyrrolo[2,3-d]pyrimidin-4-yl)-5,8-diazaspiro[2.5]octane-8-sulfonamide], the EC50 on JAK1 is under 100 nM; at TYK2, over 500 nM; at JAK3 it was 100 to 500 nM; at JAK2 it was under 100 nM.

Regarding `CC(C#N)N(C1CCC1)S(=O)(=O)N1CCN(c2ncnc3[nH]ccc23)CC12CC2` (stereo not shown) [Example 107, N-(1-cyanoethyl)-N-cyclobutyl-5-(7H-pyrrolo[2,3-d]pyrimidin-4-yl)-5,8-diazaspiro[2.5]octane-8-sulfonamide], the EC50 is under 100 nM at JAK1, 100 to 500 nM at TYK2, under 100 nM on JAK3 and under 100 nM on JAK2.

Regarding `N#CCN(CCO)S(=O)(=O)N1CCN(c2ncnc3[nH]ccc23)CC12CC2` [Example 108, N-(cyanomethyl)-N-(2-hydroxyethyl)-5-(7H-pyrrolo[2,3-d]pyrimidin-4-yl)-5,8-diazaspiro[2.5]octane-8-sulfonamide], the EC50 is under 100 nM on JAK1, 100 to 500 nM on TYK2, under 100 nM at JAK3 and under 100 nM on JAK2.

Consider `CN(CCO)S(=O)(=O)N1CCN(c2ncnc3[nH]ccc23)CC12CC2` [Example 109, N-(2-hydroxyethyl)-N-methyl-5-(7H-pyrrolo[2,3-d]pyrimidin-4-yl)-5,8-diazaspiro[2.5]octane-8-sulfonamide], for which the EC50 on JAK1 was under 100 nM; at TYK2, 100 to 500 nM; at JAK3 it was 100 to 500 nM; at JAK2, under 100 nM.

As for `N#CCCCN(CCO)S(=O)(=O)N1CCN(c2ncnc3[nH]ccc23)CC12CC2` [Example 110, N-(3-cyanopropyl)-N-(2-hydroxyethyl)-5-(7H-pyrrolo[2,3-d]pyrimidin-4-yl)-5,8-diazaspiro[2.5]octane-8-sulfonamide], the EC50 at JAK1 is under 100 nM; at TYK2, 100 to 500 nM; on JAK3 it was under 100 nM; on JAK2, under 100 nM.

Take `O=S(=O)(N(CCO)CCOc1ccccc1)N1CCN(c2ncnc3[nH]ccc23)CC12CC2` [Example 111, N-(2-hydroxyethyl)-N-(2-phenoxyethyl)-5-(7H-pyrrolo[2,3-d]pyrimidin-4-yl)-5,8-diazaspiro[2.5]octane-8-sulfonamide]: the EC50 is 100 to 500 nM on JAK1, over 500 nM at TYK2, 100 to 500 nM at JAK3 and under 100 nM on JAK2.

As to `CN(C1COC1)S(=O)(=O)N1CCN(c2ncnc3[nH]ccc23)CC12CC2` [Example 112, N-methyl-N-(oxetan-3-yl)-5-(7H-pyrrolo[2,3-d]pyrimidin-4-yl)-5,8-diazaspiro[2.5]octane-8-sulfonamide], the EC50 at JAK1 was under 100 nM; on TYK2 it was 100 to 500 nM; on JAK3, under 100 nM; at JAK2 it was under 100 nM.

Consider `N#CCN(C1COC1)S(=O)(=O)N1CCN(c2ncnc3[nH]ccc23)CC12CC2` [Example 113, N-(cyanomethyl)-N-(oxetan-3-yl)-5-(7H-pyrrolo[2,3-d]pyrimidin-4-yl)-5,8-diazaspiro[2.5]octane-8-sulfonamide], for which the EC50 at JAK1, at TYK2, at JAK3 and at JAK2 was under 100 nM in each case.

As to `N#CCCCN(C1COC1)S(=O)(=O)N1CCN(c2ncnc3[nH]ccc23)CC12CC2` [Example 114, N-(3-cyanopropyl)-N-(oxetan-3-yl)-5-(7H-pyrrolo[2,3-d]pyrimidin-4-yl)-5,8-diazaspiro[2.5]octane-8-sulfonamide], the EC50 on JAK1, on TYK2, on JAK3 and at JAK2 was under 100 nM each time.

Take `O=S(=O)(N(CCOc1ccccc1)C1COC1)N1CCN(c2ncnc3[nH]ccc23)CC12CC2` [Example 115, N-(oxetan-3-yl)-N-(2-phenoxyethyl)-5-(7H-pyrrolo[2,3-d]pyrimidin-4-yl)-5,8-diazaspiro[2.5]octane-8-sulfonamide]: the 50% effective concentration (EC50) on JAK1 was under 100 nM; on TYK2, 100 to 500 nM; at JAK3, under 100 nM; on JAK2 it was under 100 nM.

Consider `O=S(=O)(N(CCO)C1COC1)N1CCN(c2ncnc3[nH]ccc23)CC12CC2` [Example 116, N-(2-hydroxyethyl)-N-(oxetan-3-yl)-5-(7H-pyrrolo[2,3-d]pyrimidin-4-yl)-5,8-diazaspiro[2.5]octane-8-sulfonamide], for which the EC50 on JAK1 is under 100 nM; at TYK2, over 500 nM; on JAK3, 100 to 500 nM; on JAK2, under 100 nM.

`CC(C#N)N(C1COC1)S(=O)(=O)N1CCN(c2ncnc3[nH]ccc23)CC12CC2` (stereo not shown) [Example 117, N-(1-cyanoethyl)-N-(oxetan-3-yl)-5-(7H-pyrrolo[2,3-d]pyrimidin-4-yl)-5,8-diazaspiro[2.5]octane-8-sulfonamide]: the EC50 on JAK1 was under 100 nM; at TYK2 it was 100 to 500 nM; at JAK3 it was under 100 nM; at JAK2 it was under 100 nM.

`CCCS(=O)(=O)N1CCC(CN(C)S(=O)(=O)N2CCN(c3ncnc4[nH]ccc34)CC23CC3)C1` (stereo not shown) [Example 118, N-methyl-N-[(1-propylsulfonylpyrrolidin-3-yl)methyl]-5-(7H-pyrrolo[2,3-d]pyrimidin-4-yl)-5,8-diazaspiro[2.5]octane-8-sulfonamide]: the EC50 at JAK1 is under 100 nM; at TYK2, 100 to 500 nM; on JAK3 it was under 100 nM; at JAK2, under 100 nM.

As for `CN(CC1CCN(S(C)(=O)=O)C1)S(=O)(=O)N1CCN(c2ncnc3[nH]ccc23)CC12CC2` (stereo not shown) [Example 119, N-methyl-N-[(1-methylsulfonylpyrrolidin-3-yl)methyl]-5-(7H-pyrrolo[2,3-d]pyrimidin-4-yl)-5,8-diazaspiro[2.5]octane-8-sulfonamide], the concentration giving a half-maximal response (EC50) was under 100 nM at JAK1, 100 to 500 nM on TYK2, under 100 nM at JAK3 and under 100 nM on JAK2.

Regarding `COCCS(=O)(=O)N1CCC(CN(C)S(=O)(=O)N2CCN(c3ncnc4[nH]ccc34)CC23CC3)C1` (stereo not shown) [Example 120, N-[[1-(2-methoxyethylsulfonyl)pyrrolidin-3-yl]methyl]-N-methyl-5-(7H-pyrrolo[2,3-d]pyrimidin-4-yl)-5,8-diazaspiro[2.5]octane-8-sulfonamide], the concentration for a half-maximal effect (EC50) was under 100 nM at JAK1, 100 to 500 nM on TYK2, under 100 nM on JAK3 and under 100 nM on JAK2.

As for `CN(CC1CCN(S(=O)(=O)CCCC#N)C1)S(=O)(=O)N1CCN(c2ncnc3[nH]ccc23)CC12CC2` (stereo not shown) [Example 121, N-[[1-(3-cyanopropylsulfonyl)pyrrolidin-3-yl]methyl]-N-methyl-5-(7H-pyrrolo[2,3-d]pyrimidin-4-yl)-5,8-diazaspiro[2.5]octane-8-sulfonamide], the EC50 at JAK1 was under 100 nM; on TYK2, 100 to 500 nM; on JAK3, under 100 nM; on JAK2, under 100 nM.

In the case of `CN(CC1CCN(S(=O)(=O)CC2CC2)C1)S(=O)(=O)N1CCN(c2ncnc3[nH]ccc23)CC12CC2` (stereo not shown) [Example 122, N-[[1-(cyclopropylmethylsulfonyl)pyrrolidin-3-yl]methyl]-N-methyl-5-(7H-pyrrolo[2,3-d]pyrimidin-4-yl)-5,8-diazaspiro[2.5]octane-8-sulfonamide], the EC50 is under 100 nM at JAK1, 100 to 500 nM at TYK2, under 100 nM on JAK3 and under 100 nM on JAK2.

As for `CN(CC1CCN(C(=O)CCO)C1)S(=O)(=O)N1CCN(c2ncnc3[nH]ccc23)CC12CC2` (stereo not shown) [Example 123, N-[[1-(3-hydroxypropanoyl)pyrrolidin-3-yl]methyl]-N-methyl-5-(7H-pyrrolo[2,3-d]pyrimidin-4-yl)-5,8-diazaspiro[2.5]octane-8-sulfonamide], the EC50 at JAK1 is under 100 nM; at TYK2, over 500 nM; on JAK3, 100 to 500 nM; on JAK2, under 100 nM.
